We go through 4 compounds from patent publication US5714490A, “Tetrahydrofuran antifungals” (Schering Corporation, priority 1995, dated 1998).

The test system of series [1] is Candida glabrata. Nature of the series: in vitro broth dilution MIC against Candida glabrata. In kind it is cell-based. The conditions noted are these: 9 strains.
Method: (§1) The in vitro antifungal activity tests were performed via conventional broth dilution methods in Sabouraud dextrose broth ("SDB") medium and Eagles Minimum Essential Medium ("EMEM") against a large number of fungi. Minimum Inhibitory Concentrations ("MICs") were measured after 24, 48 and 72 hour tests. In many cases, Minimum Fungicidial Concentrations ("MFCS") were measured after 48 and 72 hours.
In series [2] the test system is Candida albicans. The settings on record: 26 strains.
Method: as §1
Series [3] relates to Candida tropicalis & stellatoidea. The conditions noted are these: 5 strains.
Method: as §1
Series [4] concerns Dermatophytes. Nature of the series: in vitro broth dilution MFC against Dermatophytes. Type of series: cell-based, T. rubrum, T. mentagrophytes, and T. tonsurans. The conditions noted are these: 6 strains. On the technique in general: Dilution methods test growth across graded concentrations, often in twofold steps.
Method: as §1
The test system of series [5] is Dermatophytes. Nature of the series: in vitro broth dilution MIC against Dermatophytes. Type of series: cell-based, T. rubrum, T. mentagrophytes, and T. tonsurans. The settings on record: 6 strains.
For series [6], the system named is Aspergillus. Nature of the series: in vitro broth dilution MFC against Aspergillus. Type of series: cell-based, Aspergillus flavus, fumigatus and other species. The settings on record: 37 strains.
Method: as §1
For series [7], the system named is Candida krusei. Nature of the series: in vitro broth dilution MIC against Candida krusei. In kind it is cell-based. The conditions noted are these: 16 strains.
Method: as §1
For series [8], the system named is Candida albicans. Nature of the series: in vitro broth dilution MIC against Candida albicans. Type of series: cell-based. The conditions noted are these: 26 strains.
Method: as §1
For series [9], the system named is Aspergillus. Briefly: in vitro broth dilution MIC against Aspergillus. Type of series: cell-based, Aspergillus flavus, fumigatus and other species. The settings on record: 37 strains.
Method: as §1
The subject of series [10] is Cryptococcus neoformans. Briefly: in vitro broth dilution MFC against Cryptococcus neoformans. In kind it is cell-based. The settings on record: 3 strains.
Method: as §1
The subject of series [11] is Candida glabrata. Nature of the series: in vitro broth dilution MFC against Candida glabrata. Type of series: cell-based. The settings on record: 9 strains.
Method: as §1
In series [12] the test system is Candida krusei. Nature of the series: in vitro broth dilution MFC against Candida krusei. Type of series: cell-based. The settings on record: 16 strains.
Method: as §1
Series [13] concerns Candida tropicalis & stellatoidea. Briefly: in vitro broth dilution MIC against Candida tropicalis & stellatoidea. In kind it is cell-based. The settings on record: 5 strains.
Method: as §1
For series [14], the system named is Cryptococcus neoformans. Briefly: in vitro broth dilution MIC against Cryptococcus neoformans. In kind it is cell-based. The conditions noted are these: 3 strains.
Method: as §1
For series [15], the system named is cytochrome P-450 liver drug metabolizing enzymes. Briefly: induction of liver drug metabolizing enzymes in an in vivo rat model. The settings on record: oral administration.
A short description of series [16]: serum levels, half life and tissue distribution after oral dosing. Type of series: in vivo, mice, rats, dogs and monkeys.

With `CC[C@H]([C@H](C)O)n1ncn(-c2ccc(N3CCN(c4ccc(OC[C@@H]5CO[C@@](Cn6cncn6)(c6ccc(F)cc6F)C5)cc4)CC3)cc2)c1=O`, the “PERCENTAGE OF STRAINS WITH MICs ≤1 MCG/ML” value with Candida glabrata [1] was found to be 22 PERCENTAGE; in the series on Dermatophytes [5], 100 PERCENTAGE; with Candida krusei [7] it was 100 PERCENTAGE; in the series on Candida albicans [8] it was 100 PERCENTAGE; in the series on Aspergillus [9], 100 PERCENTAGE; in series [13] it was 100 PERCENTAGE. Besides, in the series with Cryptococcus neoformans [14], the “PERCENTAGE OF STRAINS WITH MICs ≤1 MCG/ML” value is recorded as 100 PERCENTAGE. Further, the “PERCENTAGE OF STRAINS WITH MFCs ≤1 MCG/ML” value was 100 PERCENTAGE in the series on Candida albicans [2]; 100 PERCENTAGE in [3]; 67 PERCENTAGE with Dermatophytes [4]; 50 PERCENTAGE with Aspergillus [6]; 100 PERCENTAGE in the series with Cryptococcus neoformans [10]; 22 PERCENTAGE in the series on Candida glabrata [11]. Besides, in the series on Candida krusei [12], the “PERCENTAGE OF STRAINS WITH MFCs ≤1 MCG/ML” value is reported as 88 PERCENTAGE.

In the case of `CC[C@@H]([C@@H](C)O)n1ncn(-c2ccc(N3CCN(c4ccc(OC[C@@H]5CO[C@@](Cn6cncn6)(c6ccc(F)cc6F)C5)cc4)CC3)cc2)c1=O`, the “PERCENTAGE OF STRAINS WITH MICs ≤1 MCG/ML” value in the series on Candida glabrata [1] was 33 PERCENTAGE. The “PERCENTAGE OF STRAINS WITH MFCs ≤1 MCG/ML” value turned out to be 100 PERCENTAGE with Dermatophytes [4], 89 PERCENTAGE in the series on Aspergillus [6] and 100 PERCENTAGE in the series with Candida krusei [12].

For `CC[C@@H]([C@H](C)O)n1ncn(-c2ccc(N3CCN(c4ccc(OC[C@@H]5CO[C@@](Cn6cncn6)(c6ccc(F)cc6F)C5)cc4)CC3)cc2)c1=O` [drawing 20], in series [15], the “induction of cytochrome P-450 liver drug metabolizing enzymes” value is “not inducers”. In [16] (O.D. dosing), the serum half lives entry was “very long serum half lives” and the tissue distribution entry was “good tissue distribution”. Also, in [16] (oral dosing, methyl cellulose formulation, mice, rats, dogs and monkeys), the “serum levels compared to azoles of similiar structure” value is “consistently higher serum levels”.

Take `CC[C@@H]([C@H](C)O)n1ncn(-c2ccc(N3CCN(c4ccc(OC[C@@H]5CO[C@@](Cn6cncn6)(c6ccc(F)cc6F)C5)cc4)CC3)cc2)c1=O` [drawing 22]: the results for the “PERCENTAGE OF STRAINS WITH MFCs ≤1 MCG/ML” value with Dermatophytes [4], in the series on Aspergillus [6] and in the series with Candida krusei [12] were 83 PERCENTAGE, 62 PERCENTAGE and 94 PERCENTAGE, respectively.
